Assay results published in patent publication US10344060B2 (priority 2013, dated 2019).
pIC50: −log10 of the molar value. Read-outs that look alike come from different tables or passages of the source.

Tests used:
Assay in all cases: cell-based
Type in all cases: cell-based
hNav1.4 [1] = molecular target: T1, hNav1.4 (Homo sapiens, UniProt P35499); settings: ratio of IonWorks Quattro IC50 values
hNav1.4 [2] = molecular target: T1, hNav1.4; settings: for pIC50: PatchXpress, read-out: PX hNav1.4 Tonic IC50; for Nav1.4/Nav1.7: ratio of PX tonic IC50 values
hNav1.7 = hNav1.7 (Homo sapiens, UniProt Q15858); settings: for pIC50: PatchXpress, read-out: PX hNav1.7 Tonic IC50
Sequence of hNav1.7 (Q15858 whole entry): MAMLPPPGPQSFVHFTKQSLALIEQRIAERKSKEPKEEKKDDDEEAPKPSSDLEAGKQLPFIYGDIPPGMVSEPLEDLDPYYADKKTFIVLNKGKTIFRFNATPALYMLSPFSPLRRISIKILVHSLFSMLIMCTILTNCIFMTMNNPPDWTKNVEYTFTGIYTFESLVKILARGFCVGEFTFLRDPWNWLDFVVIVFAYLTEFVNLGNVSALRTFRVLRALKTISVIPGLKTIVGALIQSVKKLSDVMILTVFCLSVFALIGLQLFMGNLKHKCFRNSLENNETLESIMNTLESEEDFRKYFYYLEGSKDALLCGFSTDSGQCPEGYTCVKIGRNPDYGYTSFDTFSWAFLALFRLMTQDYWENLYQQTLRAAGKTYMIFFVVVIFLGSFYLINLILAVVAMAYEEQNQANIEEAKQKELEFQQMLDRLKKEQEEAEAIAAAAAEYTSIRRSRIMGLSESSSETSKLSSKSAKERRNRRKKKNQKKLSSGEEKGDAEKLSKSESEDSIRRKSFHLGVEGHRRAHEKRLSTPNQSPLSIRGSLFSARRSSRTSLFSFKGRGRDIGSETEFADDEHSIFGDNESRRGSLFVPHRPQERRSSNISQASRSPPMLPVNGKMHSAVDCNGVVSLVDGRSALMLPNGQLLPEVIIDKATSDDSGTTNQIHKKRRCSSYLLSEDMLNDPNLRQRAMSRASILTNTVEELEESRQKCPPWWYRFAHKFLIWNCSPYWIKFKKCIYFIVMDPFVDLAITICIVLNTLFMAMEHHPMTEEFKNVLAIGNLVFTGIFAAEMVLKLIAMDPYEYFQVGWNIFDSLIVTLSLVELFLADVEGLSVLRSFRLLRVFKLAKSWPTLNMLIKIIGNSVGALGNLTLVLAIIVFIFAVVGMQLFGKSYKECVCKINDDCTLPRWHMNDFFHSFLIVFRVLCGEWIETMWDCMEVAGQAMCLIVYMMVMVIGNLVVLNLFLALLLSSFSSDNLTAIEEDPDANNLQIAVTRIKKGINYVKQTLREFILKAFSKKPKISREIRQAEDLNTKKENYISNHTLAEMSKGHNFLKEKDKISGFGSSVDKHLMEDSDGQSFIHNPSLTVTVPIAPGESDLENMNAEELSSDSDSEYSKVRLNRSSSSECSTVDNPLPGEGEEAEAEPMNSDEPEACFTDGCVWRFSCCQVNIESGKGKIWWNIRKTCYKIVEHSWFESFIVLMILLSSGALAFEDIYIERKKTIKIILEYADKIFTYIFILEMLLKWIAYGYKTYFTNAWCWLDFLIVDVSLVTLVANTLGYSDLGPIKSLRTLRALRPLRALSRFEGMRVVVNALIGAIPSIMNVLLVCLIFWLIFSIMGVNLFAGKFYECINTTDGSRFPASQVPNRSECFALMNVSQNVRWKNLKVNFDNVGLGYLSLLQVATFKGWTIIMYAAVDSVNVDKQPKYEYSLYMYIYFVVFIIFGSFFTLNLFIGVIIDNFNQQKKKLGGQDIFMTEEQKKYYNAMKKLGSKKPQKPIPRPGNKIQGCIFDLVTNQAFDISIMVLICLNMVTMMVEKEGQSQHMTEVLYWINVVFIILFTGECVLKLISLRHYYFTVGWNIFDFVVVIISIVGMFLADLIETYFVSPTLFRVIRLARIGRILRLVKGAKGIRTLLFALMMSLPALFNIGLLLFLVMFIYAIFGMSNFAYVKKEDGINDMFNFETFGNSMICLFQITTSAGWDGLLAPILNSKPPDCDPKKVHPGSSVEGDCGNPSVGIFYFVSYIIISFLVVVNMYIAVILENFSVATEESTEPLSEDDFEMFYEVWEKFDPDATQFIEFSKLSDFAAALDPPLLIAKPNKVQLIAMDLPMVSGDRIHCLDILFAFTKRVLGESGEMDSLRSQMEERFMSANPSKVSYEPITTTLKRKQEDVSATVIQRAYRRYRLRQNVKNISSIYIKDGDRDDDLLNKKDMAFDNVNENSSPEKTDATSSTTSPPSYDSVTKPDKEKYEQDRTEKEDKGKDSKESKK

T1 sequence (P35499 whole entry): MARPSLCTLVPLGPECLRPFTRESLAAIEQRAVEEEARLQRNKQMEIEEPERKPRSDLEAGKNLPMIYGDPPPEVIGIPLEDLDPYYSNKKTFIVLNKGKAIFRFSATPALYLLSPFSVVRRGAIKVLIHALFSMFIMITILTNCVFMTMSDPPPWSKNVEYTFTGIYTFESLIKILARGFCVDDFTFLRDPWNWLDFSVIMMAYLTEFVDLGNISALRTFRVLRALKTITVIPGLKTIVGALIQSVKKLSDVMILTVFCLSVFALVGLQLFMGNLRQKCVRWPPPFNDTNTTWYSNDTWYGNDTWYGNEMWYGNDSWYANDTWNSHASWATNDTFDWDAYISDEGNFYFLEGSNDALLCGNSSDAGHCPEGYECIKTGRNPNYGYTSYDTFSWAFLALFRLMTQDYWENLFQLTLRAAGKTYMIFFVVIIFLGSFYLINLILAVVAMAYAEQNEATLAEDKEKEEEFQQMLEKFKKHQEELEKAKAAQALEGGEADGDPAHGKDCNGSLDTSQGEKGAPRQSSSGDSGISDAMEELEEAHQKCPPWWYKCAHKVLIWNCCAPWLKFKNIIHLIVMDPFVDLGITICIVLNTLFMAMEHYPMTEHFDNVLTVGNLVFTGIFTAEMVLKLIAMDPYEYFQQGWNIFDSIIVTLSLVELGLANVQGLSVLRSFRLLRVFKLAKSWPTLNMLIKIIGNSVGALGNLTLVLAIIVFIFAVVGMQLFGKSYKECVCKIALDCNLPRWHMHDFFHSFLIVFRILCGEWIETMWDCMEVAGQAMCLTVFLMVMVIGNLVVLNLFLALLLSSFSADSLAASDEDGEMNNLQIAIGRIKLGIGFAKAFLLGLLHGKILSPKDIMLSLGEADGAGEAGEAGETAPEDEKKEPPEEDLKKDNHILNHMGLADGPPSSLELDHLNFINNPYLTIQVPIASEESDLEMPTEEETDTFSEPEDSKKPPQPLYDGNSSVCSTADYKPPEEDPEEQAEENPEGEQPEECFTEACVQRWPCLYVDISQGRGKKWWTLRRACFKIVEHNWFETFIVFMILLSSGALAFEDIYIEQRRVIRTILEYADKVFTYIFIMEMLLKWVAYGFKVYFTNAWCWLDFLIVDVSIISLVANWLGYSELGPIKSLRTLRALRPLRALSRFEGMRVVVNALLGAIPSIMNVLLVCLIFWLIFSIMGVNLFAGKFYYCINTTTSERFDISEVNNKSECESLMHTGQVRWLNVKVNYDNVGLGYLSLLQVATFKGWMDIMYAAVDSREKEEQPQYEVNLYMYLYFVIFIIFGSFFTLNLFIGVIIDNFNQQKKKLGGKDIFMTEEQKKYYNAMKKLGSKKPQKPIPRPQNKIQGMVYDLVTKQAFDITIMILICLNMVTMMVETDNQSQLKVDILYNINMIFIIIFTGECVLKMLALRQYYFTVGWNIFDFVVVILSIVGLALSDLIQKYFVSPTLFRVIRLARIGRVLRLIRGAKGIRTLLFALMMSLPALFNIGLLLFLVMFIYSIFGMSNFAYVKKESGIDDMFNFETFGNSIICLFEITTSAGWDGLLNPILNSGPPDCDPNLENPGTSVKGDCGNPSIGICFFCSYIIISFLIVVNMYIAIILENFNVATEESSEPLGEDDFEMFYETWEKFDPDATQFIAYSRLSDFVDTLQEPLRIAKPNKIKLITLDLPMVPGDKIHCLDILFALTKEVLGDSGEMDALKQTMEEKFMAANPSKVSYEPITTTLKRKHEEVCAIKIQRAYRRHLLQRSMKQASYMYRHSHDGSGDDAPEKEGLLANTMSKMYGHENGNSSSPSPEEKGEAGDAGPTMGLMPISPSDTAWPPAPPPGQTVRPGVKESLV

Compound `CC[C@H](C)[C@H](NC(=O)[C@H](Cc1cn(CCCOCCOCCOCCOCCOCCOCCOCCOCCOCCOCCN)nn1)NC(=O)[C@H](CCCCN)NC(=O)[C@H](CCCNC(=N)N)NC(=O)[C@@H]1CSSC[C@@H]2NC(=O)[C@H](C)NC(=O)[C@H](CCCNC(=N)N)NC(=O)[C@H](CCCCN)NC(=O)[C@H](CO)NC(=O)[C@H](CC(=O)O)NC(=O)[C@@H]3CSSC[C@H](NC(=O)[C@H](CCC(=O)O)NC(=O)[C@H](CC(C)C)NC(=O)CNC(=O)[C@H](CCC(=O)O)NC(=O)[C@H](CSSC[C@H](NC(=O)[C@@H](N)Cc4ccc(O)cc4)C(=O)N[C@@H](CCC(N)=O)C(=O)N[C@@H](CCCCN)C(=O)N[C@@H](Cc4c[nH]c5ccccc45)C(=O)N[C@@H](CCSC)C(=O)N[C@@H](Cc4c[nH]c5ccccc45)C(=O)N[C@@H]([C@@H](C)O)C(=O)N3)NC2=O)C(=O)N[C@@H](CCCCN)C(=O)N[C@@H](CC(C)C)C(=O)N[C@@H](Cc2c[nH]c3ccccc23)C(=O)N1)C(N)=O` [compound 187] has a Nav1.4/Nav1.7 (hNav1.4 [1]; Table 9) of 3.

For `CC[C@H](C)[C@H](NC(=O)[C@@H](NC(=O)[C@H](CCCCN)NC(=O)[C@H](CCCNC(=N)N)NC(=O)[C@@H]1CSSC[C@@H]2NC(=O)[C@H](C)NC(=O)[C@H](CCCNC(=N)N)NC(=O)[C@H](CCCCN)NC(=O)[C@H](CO)NC(=O)[C@H](CC(=O)O)NC(=O)[C@@H]3CSSC[C@H](NC(=O)[C@H](CCCNC(=N)N)NC(=O)[C@H](CC(C)C)NC(=O)CNC(=O)[C@H](Cc4cccc5ccccc45)NC(=O)[C@H](CSSC[C@H](NC(=O)[C@@H](N)Cc4ccc(O)cc4)C(=O)N[C@@H](CCC(N)=O)C(=O)N[C@@H](CCCCN)C(=O)N[C@@H](Cc4c[nH]c5ccccc45)C(=O)N[C@@H](CCSC)C(=O)N[C@@H](Cc4c[nH]c5ccccc45)C(=O)N[C@@H]([C@@H](C)O)C(=O)N3)NC2=O)C(=O)N[C@@H](CCCCN)C(=O)N[C@@H](CC(C)C)C(=O)N[C@@H](Cc2c[nH]c3ccccc23)C(=O)N1)[C@@H](C)CC)C(N)=O` [compound 37], the Nav1.4/Nav1.7 (hNav1.4 [1]; Table 6) was 4.

`CC[C@H](C)[C@H](NC(=O)[C@@H](NC(=O)[C@H](CCCCN)NC(=O)[C@H](CCCNC(=N)N)NC(=O)[C@@H]1CSSC[C@@H]2NC(=O)[C@H](C)NC(=O)[C@H](CCCNC(=N)N)NC(=O)[C@H](CCCCN)NC(=O)[C@H](CO)NC(=O)[C@H](CC(=O)O)NC(=O)[C@@H]3CSSC[C@H](NC(=O)[C@H](CCC(=O)O)NC(=O)[C@H](CC(C)C)NC(=O)CNC(=O)[C@H](Cc4cn(CCCOCCOCCOCCOCCOCCOCCOCCOCCOCCOCCN)nn4)NC(=O)[C@H](CSSC[C@H](NC(=O)[C@@H](N)Cc4ccc(O)cc4)C(=O)N[C@@H](CCC(N)=O)C(=O)N[C@@H](CCCCN)C(=O)N[C@@H](Cc4c[nH]c5ccccc45)C(=O)N[C@@H](CCSC)C(=O)N[C@@H](Cc4c[nH]c5ccccc45)C(=O)N[C@@H]([C@@H](C)O)C(=O)N3)NC2=O)C(=O)N[C@@H](CCCCN)C(=O)N[C@@H](CC(C)C)C(=O)N[C@@H](Cc2c[nH]c3ccccc23)C(=O)N1)[C@@H](C)CC)C(N)=O` [compound 178] was tested, and the Nav1.4/Nav1.7 (hNav1.4 [1]; Table 9) was 28.

Compound `CC[C@H](C)[C@H](NC(=O)[C@@H](NC(=O)[C@H](CCCCN)NC(=O)[C@H](CCCNC(=N)N)NC(=O)[C@@H]1CSSC[C@@H]2NC(=O)[C@H](C)NC(=O)[C@H](CCCNC(=N)N)NC(=O)[C@H](CCCCN)NC(=O)[C@H](CO)NC(=O)[C@H](CC(=O)O)NC(=O)[C@@H]3CSSC[C@H](NC(=O)[C@H](CCC(=O)O)NC(=O)[C@H](CC(C)C)NC(=O)CNC(=O)[C@H](CCC(=O)O)NC(=O)[C@H](CSSC[C@H](NC(=O)[C@@H](N)Cc4ccc(O)cc4)C(=O)N[C@@H](CCC(N)=O)C(=O)N[C@@H](CCCCN)C(=O)N[C@@H](Cc4c[nH]c5ccccc45)C(=O)N[C@@H](CCSC)C(=O)N[C@@H](Cc4c[nH]c5ccccc45)C(=O)N[C@@H]([C@@H](C)O)C(=O)N3)NC2=O)C(=O)N[C@@H](CCCCN)C(=O)N[C@@H](Cc2cn(CCCOCCOCCOCCOCCOCCOCCOCCOCCOCCOCCN)nn2)C(=O)N[C@@H](Cc2c[nH]c3ccccc23)C(=O)N1)[C@@H](C)CC)C(N)=O` [compound 183] has a Nav1.4/Nav1.7 (hNav1.4 [1]; Table 9) of 1.

In the case of `CC[C@H](C)[C@H](NC(=O)[C@@H](NC(=O)[C@H](CCCCN)NC(=O)[C@H](CCCNC(=N)N)NC(=O)[C@@H]1CSSC[C@@H]2NC(=O)[C@H](C)NC(=O)[C@H](CCCNC(=N)N)NC(=O)[C@H](CCC(=O)O)NC(=O)[C@H](CO)NC(=O)[C@H](CC(=O)O)NC(=O)[C@@H]3CSSC[C@H](NC(=O)[C@H](CCCNC(=N)N)NC(=O)[C@H](CC(C)C)NC(=O)CNC(=O)[C@H](CCC(=O)O)NC(=O)[C@H](CSSC[C@H](NC(=O)[C@@H](N)Cc4ccc(O)cc4)C(=O)N[C@@H](CCC(N)=O)C(=O)N[C@@H](CCCCN)C(=O)N[C@@H](Cc4c[nH]c5ccccc45)C(=O)N[C@@H](CCSC)C(=O)N[C@@H](Cc4c[nH]c5ccccc45)C(=O)N[C@@H]([C@@H](C)O)C(=O)N3)NC2=O)C(=O)N[C@@H](CCCCN)C(=O)N[C@@H](CC(C)C)C(=O)N[C@@H](Cc2c[nH]c3ccccc23)C(=O)N1)[C@@H](C)CC)C(N)=O` [compound 58], the pIC50 (hNav1.4 [2]; tonic, Table 11) was 7.36, the pIC50 (hNav1.7; tonic, Table 11) was 9.04 and the Nav1.4/Nav1.7 (hNav1.7; ratio of PX tonic IC50 values, Table 11) was 48.

`C#CC[C@@H]1NC(=O)[C@H](CC(=O)O)NC(=O)[C@@H]2CSSC[C@@H]3NC(=O)[C@H](CCCNC(=N)N)NC(=O)[C@H](CC(C)C)NC(=O)CNC(=O)[C@H](CCC(=O)O)NC(=O)[C@H](CSSC[C@H](NC(=O)[C@H](Cc4ccc(O)cc4)NC(=O)[C@@H](N)CC#N)C(=O)N[C@@H](CCC(N)=O)C(=O)N[C@@H](CCCCN)C(=O)N[C@@H](Cc4c[nH]c5ccccc45)C(=O)N[C@@H](CCCC)C(=O)N[C@@H](Cc4c[nH]c5ccccc45)C(=O)N[C@@H]([C@@H](C)O)C(=O)N2)NC(=O)[C@H](CSSC[C@@H](C(=O)N[C@@H](CCCNC(=N)N)C(=O)N[C@@H](CCCCN)C(=O)N[C@@H](CCC(=O)O)C(=O)N[C@H](C(N)=O)[C@@H](C)CC)NC(=O)[C@H](Cc2c[nH]c4ccccc24)NC(=O)[C@H](CC(C)C)NC(=O)[C@H](CCCCN)NC3=O)NC(=O)[C@H](C)NC(=O)[C@H](CCCNC(=N)N)NC(=O)[C@H](CCCCN)NC1=O` [compound 520] showed a pIC50 (hNav1.4 [2]; Table 12, tonic block) of 6.29, a Nav1.4/Nav1.7 (hNav1.4 [2]; Table 12) of 2673 and a pIC50 (hNav1.7; Table 12, tonic block) of 9.71.

In the case of `C#CC[C@H](N)C(=O)N[C@@H](CCC(=O)O)C(=O)N[C@H]1CSSC[C@@H]2NC(=O)[C@@H]3CSSC[C@@H](C(=O)N[C@@H](CCCNC(=N)N)C(=O)N[C@@H](CCCCN)C(=O)N[C@@H](CCC(=O)O)C(=O)N[C@H](C(N)=O)[C@@H](C)CC)NC(=O)[C@H](Cc4c[nH]c5ccccc45)NC(=O)[C@H](CC(C)C)NC(=O)[C@H](CCCCN)NC(=O)[C@H](CSSC[C@H](NC(=O)[C@H]([C@@H](C)O)NC(=O)[C@H](Cc4c[nH]c5ccccc45)NC(=O)[C@H](CCCC)NC(=O)[C@H](Cc4c[nH]c5ccccc45)NC(=O)[C@H](CCCCN)NC(=O)[C@H](CCC(N)=O)NC1=O)C(=O)N[C@@H](CC(=O)O)C(=O)N[C@@H](CCC(=O)O)C(=O)N[C@@H](CCCCN)C(=O)N[C@@H](CCCNC(=N)N)C(=O)N[C@@H](CCC(=O)O)C(=O)N3)NC(=O)[C@H](CCCNC(=N)N)NC(=O)[C@H](CC(C)C)NC(=O)CNC(=O)[C@H](CCC(=O)O)NC2=O` [compound 751], the pIC50 (hNav1.4 [2]; Table 12, tonic block) was 5.72, the Nav1.4/Nav1.7 (hNav1.4 [2]; Table 12) was 189 and the pIC50 (hNav1.7; Table 12, tonic block) was 7.99.
